In the CheMixHub viscosity set:

Experiment: xn = mol fraction of the nth substance listed

CC(=O)OC(C)C + Cc1cc(C)cc(C)c1
308.15 K, 101 kPa
Conditions | viscosity [mPa·s]
x2 = 0.09942 | 0.4428
x2 = 0.197 | 0.4556
x2 = 0.3029 | 0.4738
x2 = 0.3917 | 0.4812
x2 = 0.4993 | 0.5032
x2 = 0.5992 | 0.5127
x2 = 0.6918 | 0.5289
x2 = 0.7944 | 0.539
x2 = 0.9024 | 0.5596

CCCCBr + Cc1cc(C)cc(C)c1
308.15 K, 101 kPa
Conditions | viscosity [mPa·s]
x2 = 0.0991 | 0.5234
x2 = 0.1968 | 0.5242
x2 = 0.3043 | 0.5299
x2 = 0.406 | 0.5323
x2 = 0.4969 | 0.5372
x2 = 0.5975 | 0.5416
x2 = 0.7014 | 0.5482
x2 = 0.7972 | 0.5513
x2 = 0.8984 | 0.5568

CC(=O)OC(C)C + Cc1ccc(C)cc1
viscosity [mPa·s], 101 kPa
Conditions | 303.15 K | 308.15 K | 313.15 K
x1 = 0.0984 | 0.554 | – | 0.502
x1 = 0.2017 | 0.541 | – | 0.489
x1 = 0.3126 | 0.527 | – | 0.476
x1 = 0.4038 | 0.515 | – | 0.465
x1 = 0.5039 | 0.505 | – | 0.455
x1 = 0.6015 | 0.495 | – | 0.446
x1 = 0.7028 | 0.487 | – | 0.437
x1 = 0.8113 | 0.477 | – | 0.427
x1 = 0.9523 | 0.464 | – | 0.417
x2 = 0.1061 | – | 0.4401 | –
x2 = 0.2201 | – | 0.4568 | –
x2 = 0.2975 | – | 0.4636 | –
x2 = 0.3892 | – | 0.4726 | –
x2 = 0.4985 | – | 0.4819 | –
x2 = 0.5821 | – | 0.4898 | –
x2 = 0.696 | – | 0.5019 | –
x2 = 0.7973 | – | 0.5123 | –
x2 = 0.8976 | – | 0.5215 | –

CC(=O)OCC(C)C + Cc1ccc(C)cc1
viscosity [mPa·s], 101 kPa
Conditions | x1 = 0.1104 | x1 = 0.1976 | x1 = 0.2789 | x1 = 0.376 | x1 = 0.4687 | x1 = 0.5742 | x1 = 0.6833 | x1 = 0.7765 | x1 = 0.8703 | x1 = 0.9481
303.15 K | 0.569 | 0.572 | 0.577 | 0.582 | 0.588 | 0.596 | 0.605 | 0.614 | 0.622 | 0.63
313.15 K | 0.511 | 0.512 | 0.514 | 0.516 | 0.519 | 0.526 | 0.536 | 0.547 | 0.558 | 0.57

CCCCBr + Cc1ccc(C)cc1
308.15 K, 101 kPa
Conditions | viscosity [mPa·s]
x2 = 0.1002 | 0.5174
x2 = 0.2 | 0.5139
x2 = 0.2996 | 0.5114
x2 = 0.3997 | 0.5104
x2 = 0.4329 | 0.5092
x2 = 0.6161 | 0.5084
x2 = 0.7006 | 0.5095
x2 = 0.7996 | 0.5107
x2 = 0.8946 | 0.5121

COCCO + Cc1ccc(C)cc1
viscosity [mPa·s], 101 kPa
Conditions | 298.15 K | 308.15 K
x1 = 0.0528 | 0.626 | 0.549
x1 = 0.1469 | 0.654 | 0.57
x1 = 0.2507 | 0.696 | 0.601
x1 = 0.3484 | 0.746 | 0.639
x1 = 0.4499 | 0.812 | 0.688
x1 = 0.4999 | 0.85 | 0.716
x1 = 0.5542 | 0.897 | 0.75
x1 = 0.6493 | 0.994 | 0.82
x1 = 0.7508 | 1.122 | 0.913
x1 = 0.8478 | 1.274 | 1.021
x1 = 0.9556 | 1.488 | 1.17

CC(=O)OC(C)C + Cc1cccc(C)c1
viscosity [mPa·s], 101 kPa
Conditions | x1 = 0.0998 | x1 = 0.212 | x1 = 0.3176 | x1 = 0.4048 | x1 = 0.5079 | x1 = 0.6118 | x1 = 0.7201 | x1 = 0.8193 | x1 = 0.9305
303.15 K | 0.544 | 0.53 | 0.518 | 0.509 | 0.499 | 0.489 | 0.481 | 0.474 | 0.466
313.15 K | 0.488 | 0.475 | 0.464 | 0.456 | 0.447 | 0.438 | 0.43 | 0.423 | 0.417

CC(=O)OCC(C)C + Cc1cccc(C)c1
viscosity [mPa·s], 101 kPa
Conditions | x1 = 0.094 | x1 = 0.1803 | x1 = 0.2916 | x1 = 0.3889 | x1 = 0.4721 | x1 = 0.5698 | x1 = 0.6807 | x1 = 0.7789 | x1 = 0.8716 | x1 = 0.9307
303.15 K | 0.556 | 0.562 | 0.572 | 0.582 | 0.592 | 0.602 | 0.616 | 0.629 | 0.641 | 0.644
313.15 K | 0.505 | 0.508 | 0.515 | 0.521 | 0.527 | 0.536 | 0.546 | 0.555 | 0.566 | 0.572

CCCC(=O)O + Cc1cccc(O)c1
viscosity [mPa·s], 101 kPa
Conditions | x1 = 0.1119 | x1 = 0.2209 | x1 = 0.3191 | x1 = 0.4306 | x1 = 0.5314 | x1 = 0.6298 | x1 = 0.7257 | x1 = 0.8194 | x1 = 0.9108
298.15 K | 10.28 | 8.292 | 6.808 | 5.408 | 4.362 | 3.51 | 2.822 | 2.272 | 1.845
308.15 K | 6.028 | 5.153 | 4.446 | 3.724 | 3.137 | 2.619 | 2.167 | 1.782 | 1.471
318.15 K | 4.743 | 4.158 | 3.662 | 3.14 | 2.707 | 2.316 | 1.957 | 1.621 | 1.293

CC(CC(C)(C)C)CC(C)(C)CC(C)(C)C (configuration not stated) + Cc1ccccc1
viscosity [mPa·s], 100 kPa
Conditions | x2 = 0.4498 | x2 = 0.7104 | x2 = 0.8804
298.15 K | 1.499 | 0.946 | 0.684
313.15 K | 1.196 | 0.78 | 0.58

CCCC(C)O (configuration not stated) + Cc1ccccc1
viscosity [mPa·s], 101 kPa
Conditions | x1 = 0.1002 | x1 = 0.1998 | x1 = 0.2999 | x1 = 0.3994 | x1 = 0.5004 | x1 = 0.6006 | x1 = 0.6993 | x1 = 0.8004 | x1 = 0.8998
303.15 K | 0.5378 | 0.5727 | 0.629 | 0.6912 | 0.7892 | 0.9188 | 1.129 | 1.428 | 1.926
308.15 K | 0.5072 | 0.5384 | 0.5879 | 0.6416 | 0.7284 | 0.836 | 1.012 | 1.259 | 1.656
313.15 K | 0.4802 | 0.5063 | 0.5503 | 0.5965 | 0.6696 | 0.7628 | 0.9099 | 1.114 | 1.435
318.15 K | 0.4548 | 0.4776 | 0.517 | 0.5583 | 0.6236 | 0.7009 | 0.8268 | 0.9944 | 1.26
323.15 K | 0.4322 | 0.4524 | 0.4862 | 0.5226 | 0.5786 | 0.6466 | 0.7539 | 0.8904 | 1.11
